In patent publication US12180187B2, “1-phenyl-5-azinylpyrazolyl-3-oxyalkyl acids and their use for controlling unwanted plant growth” (BAYER AKTIENGESELLSCHAFT, priority 2019, dated 2024):

Columns and labels:
ALOMY [1] = assay: Pre-emergence action against ALOMY, 1280 g/ha; assay type: in vivo, Alopecurus myosuroides; settings: visual scoring after about 3 weeks vs untreated controls, 100% = plants have died, 0% = like control plants
Procedure, shortened: (§1)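 Mono- and dicot weed seeds sown in sandy loam were treated on the covering soil surface with WP or EC formulations plus 0.5% additive at 600 L water/ha. Pots stayed in a greenhouse; damage was scored visually after ~3 weeks as percent versus untreated controls (100% = dead).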

DIGSA [2] = assay: Pre-emergence action against DIGSA, 1280 g/ha; assay type: in vivo, Digitaria sanguinalis; settings: visual scoring after about 3 weeks vs untreated controls, 100% = plants have died, 0% = like control plants
Procedure, shortened: as §1

ECHCG [3] = assay: Pre-emergence action against ECHCG, 1280 g/ha; assay type: in vivo, Echinochloa crus-galli; settings: visual scoring after about 3 weeks vs untreated controls, 100% = plants have died, 0% = like control plants
Procedure, shortened: as §1

LOLRI [4] = assay: Pre-emergence action against LOLRI, 1280 g/ha; assay type: in vivo, Lolium rigidum; settings: visual scoring after about 3 weeks vs untreated controls, 100% = plants have died, 0% = like control plants
Procedure, shortened: as §1

POAAN [5] = assay: Pre-emergence action against POAAN, 1280 g/ha; assay type: in vivo, Poa annua; settings: visual scoring after about 3 weeks vs untreated controls, 100% = plants have died, 0% = like control plants
Procedure, shortened: as §1

SETVI [6] = assay: Pre-emergence action against SETVI, 1280 g/ha; assay type: in vivo, Setaria viridis; settings: visual scoring after about 3 weeks vs untreated controls, 100% = plants have died, 0% = like control plants
Procedure, shortened: as §1

AMARE [7] = assay: Pre-emergence action against AMARE, 1280 g/ha; assay type: in vivo, Amaranthus retroflexus; settings: scored visually after about 3 weeks vs untreated controls (100% = plants have died)
Procedure, shortened: as §1

MATIN [8] = assay: Pre-emergence action against MATIN, 1280 g/ha; assay type: in vivo, Tripleurospermum inodorum (Matricaria inodora); settings: scored visually after about 3 weeks vs untreated controls (100% = plants have died)
Procedure, shortened: as §1

STEME [9] = assay: Pre-emergence action against STEME, 1280 g/ha; assay type: in vivo, Stellaria media; settings: scored visually after about 3 weeks vs untreated controls (100% = plants have died)
Procedure, shortened: as §1

VERPE [10] = assay: Pre-emergence action against VERPE, 1280 g/ha; assay type: in vivo, Veronica persica; settings: scored visually after about 3 weeks vs untreated controls (100% = plants have died)
Procedure, shortened: as §1

ALOMY [11] = assay: Post-emergence action against ALOMY, 1.28 kg/ha; assay type: in vivo, Alopecurus myosuroides; settings: dosage 1280 g/ha, visual rating about 3 weeks after treatment vs untreated controls
Procedure, shortened: (§2)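 Spray at one-leaf stage with WP/EC + 0.5% additive, 600 L water/ha. Greenhouse, optimum conditions, ~3 wk. Visual % control vs untreated; 0 = no effect, 100 = dead.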

DIGSA [12] = assay: Post-emergence action against DIGSA, 1.28 kg/ha; assay type: in vivo, Digitaria sanguinalis; settings: dosage 1280 g/ha, visual rating about 3 weeks after treatment vs untreated controls
Procedure, shortened: as §2

ECHCG [13] = assay: Post-emergence action against ECHCG, 1.28 kg/ha; assay type: in vivo, Echinochloa crus-galli; settings: dosage 1280 g/ha, visual rating about 3 weeks after treatment vs untreated controls
Procedure, shortened: as §2

POAAN [14] = assay: Post-emergence action against POAAN, 1.28 kg/ha; assay type: in vivo, Poa annua; settings: dosage 1280 g/ha, visual rating about 3 weeks after treatment vs untreated controls
Procedure, shortened: as §2

SETVI [15] = assay: Post-emergence action against SETVI, 1.28 kg/ha; assay type: in vivo, Setaria viridis; settings: dosage 1280 g/ha, visual rating about 3 weeks after treatment vs untreated controls
Procedure, shortened: as §2

ABUTH = assay: Post-emergence action against ABUTH, 1.28 kg/ha; assay type: in vivo, Abutilon theophrasti; settings: dosage 1280 g/ha, visual rating about 3 weeks after treatment vs untreated controls (100% = plants died)
Procedure, shortened: as §2

AMARE [16] = assay: Post-emergence action against AMARE, 1.28 kg/ha; assay type: in vivo, Amaranthus retroflexus; settings: dosage 1280 g/ha, visual rating about 3 weeks after treatment vs untreated controls (100% = plants died)
Procedure, shortened: as §2

KCHSC = assay: Post-emergence action against KCHSC, 1.28 kg/ha; assay type: in vivo, Bassia scoparia; settings: dosage 1280 g/ha, visual rating about 3 weeks after treatment vs untreated controls (100% = plants died)
Procedure: (§3) • a) Seeds of mono- and dicotyledonous weed plants are placed in plastic pots in sandy loam soil (twin sowing with one species each of mono- or dicotyledonous weed plants per pot), covered with soil and cultivated in a greenhouse under controlled growth conditions. 2 to 3 weeks after sowing, the test plants are treated at the one-leaf stage. The compounds of the invention, formulated in the form of wettable powders (WP) or as emulsion concentrates (EC), are applied to the green parts of the plants as aqueous suspension or emulsion with addition of 0.5% additive at a water application rate equivalent to 600 litres per hectare. After the test plants have been kept in the greenhouse under optimum growth conditions for about 3 weeks, the activity of the preparations is rated visually in comparison to untreated controls. For example, 100% activity=the plants have died, 0% activity=like control plants. As shown by the results, compounds of the general formula (I) of the invention, in post-emergence treatment, have very good herbicidal efficacy (90% to 100% herbicidal action) against harmful plants such as Abutilon theophrasti, Digitaria sanguinalis, Echinochloa crus-galli, Matricaria inodora, Poa annua, at an application rate of 1.28 kg of active substance per hectare.

MATIN [17] = assay: Post-emergence action against MATIN, 1.28 kg/ha; assay type: in vivo, Tripleurospermum inodorum (Matricaria inodora); settings: dosage 1280 g/ha, visual rating about 3 weeks after treatment vs untreated controls (100% = plants died)
Procedure, shortened: as §2

VERPE [18] = assay: Post-emergence action against VERPE, 1.28 kg/ha; assay type: in vivo, Veronica persica; settings: dosage 1280 g/ha, visual rating about 3 weeks after treatment vs untreated controls (100% = plants died)
Procedure, shortened: as §2

LOLRI [19] = assay: Post-emergence action against LOLRI, 1.28 kg/ha; assay type: in vivo, Lolium rigidum; settings: dosage 1280 g/ha, visual rating about 3 weeks after treatment vs untreated controls
Procedure: as §3

STEME [20] = assay: Post-emergence action against STEME, 1.28 kg/ha; assay type: in vivo, Stellaria media; settings: dosage 1280 g/ha, visual rating about 3 weeks after treatment vs untreated controls (100% = plants died)
Procedure, shortened: as §2

SMILES | Pre-emergence action against ALOMY (ALOMY [1]) | Pre-emergence action against DIGSA (DIGSA [2]) | Pre-emergence action against ECHCG (ECHCG [3]) | Pre-emergence action against LOLRI (LOLRI [4]) | Pre-emergence action against POAAN (POAAN [5]) | Pre-emergence action against SETVI (SETVI [6]) | Pre-emergence action against AMARE (AMARE [7]) | Pre-emergence action against MATIN (MATIN [8]) | Pre-emergence action against STEME (STEME [9]) | Pre-emergence action against VERPE (VERPE [10]) | Post-emergence action against ALOMY (ALOMY [11]) | Post-emergence action against DIGSA (DIGSA [12]) | Post-emergence action against ECHCG (ECHCG [13]) | Post-emergence action against POAAN (POAAN [14]) | Post-emergence action against SETVI (SETVI [15]) | Post-emergence action against ABUTH (ABUTH) | Post-emergence action against AMARE (AMARE [16]) | Post-emergence action against KCHSC (KCHSC) | Post-emergence action against MATIN (MATIN [17]) | Post-emergence action against VERPE (VERPE [18]) | further results
CCOC(=O)COc1nn(-c2ccccc2F)c(-c2ccc(F)cn2)c1I [II-012] | 90% | 100% | 90% | 100% | 100% | 100% | 90% | 90% | 100% | 90% | 100% | 90% | 100% | 100% | 90% | 90% | 100% | 100% | 90% | 100% | –
CCOC(=O)COc1nn(-c2ccccc2F)c(-c2ccnnc2)c1Br [IV-001, Ethyl {[4-bromo-1-(2-fluorophenyl)-5-(pyridazin-4-yl)-1H-pyrazol-3-yl]oxy}acetate] | – | – | – | – | – | – | – | – | – | – | 100% | – | – | – | 100% | – | – | 90% | – | – | pest or weed control at 1280 g/ha (ECHCG [3]; Echinochloa crus-galli, 504 h): 90%; pest or weed control at 1280 g/ha (LOLRI [4]; Lolium rigidum, 504 h): 100%; pest or weed control at 1280 g/ha (POAAN [5]; Poa annua, 504 h): 100%; pest or weed control at 1280 g/ha (SETVI [6]; Setaria viridis, 504 h): 100%; pest or weed control at 1280 g/ha (AMARE [7]; Amaranthus retroflexus, 504 h): 90%; pest or weed control at 1280 g/ha (MATIN [8]; Tripleurospermum inodorum, 504 h): 90%; pest or weed control at 1280 g/ha (STEME [9]; Stellaria media, 504 h): 90%; pest or weed control at 1280 g/ha (ECHCG [13]; Echinochloa crus-galli, 504 h): 90%; pest or weed control at 1280 g/ha (POAAN [14]; Poa annua, 504 h): 100%; pest or weed control at 1280 g/ha (VERPE [18]; Veronica persica, 504 h): 90%
CONC(=O)COc1nn(-c2ccccc2F)c(-c2ccc(F)nc2)c1Br [VII-068] | 100% | 100% | 100% | 100% | 100% | 100% | 100% | 100% | 100% | 100% | 100% | 100% | 100% | 100% | 90% | 100% | 100% | 90% | 90% | 100% | Post-emergence action against LOLRI (LOLRI [19]): 100%
O=C(O)COc1nn(-c2ccc(F)cc2)c(-c2ccc(F)nc2)c1I [VII-069] | – | 100% | – | 90% | 100% | 100% | 100% | 90% | 100% | 100% | 100% | 100% | – | – | – | 90% | – | 90% | 90% | 100% | Post-emergence action against STEME (STEME [20]): 90%
COC(=O)CNC(=O)COc1nn(-c2ccccc2F)c(-c2ccnc(F)c2)c1Br [VIII-009] | – | 100% | 100% | 90% | 100% | 100% | 100% | 100% | 100% | 100% | 100% | 100% | 100% | 100% | 90% | – | 90% | 90% | 90% | 100% | –
COC(=O)COc1nn(-c2cc(F)ccc2F)c(-c2ccnc(F)c2)c1Br [VIII-010] | 100% | 100% | 100% | 100% | 100% | 100% | 100% | 100% | 100% | 100% | 100% | 100% | 100% | 100% | 100% | – | 100% | 90% | 100% | 90% | Post-emergence action against LOLRI (LOLRI [19]): 100%; Post-emergence action against STEME (STEME [20]): 100%
